Assay results as given in patent US9185910B2, “Amide compound” (Sumitomo Chemical Company, Limited, priority 2012, dated 2015).

Assays:
[1] = test system: Musca domestica; experiment: Test Example 8: filter paper with sucrose bait, Musca domestica; type: in vivo; conditions: 500 ppm, 0.7 ml on filter paper, female imagoes, after 24 hours
Method: The formulations of Compounds of Present Invention 31, 41, 55, 62, 64 to 65, 67 to 70, 73 to 75, 88, 119, 124 and 131 as obtained in Formulation Example 5 were diluted with water, so as to have a concentration of the active ingredient of 500 ppm, to prepare a test drug solution.
A filter paper having a diameter of 5.5 cm was spread on the bottom of a polyethylene cup having the same diameter and 0.7 ml of the test drug solution was added dropwise onto the filter paper, and 30 mg of sucrose was uniformly placed as bait. Into the polyethylene cup, 10 female imagoes of Musca domestica were released, and the cup was sealed with a lid. After 24 hours, the life and death of Musca domestica was examined, and the death rate was calculated. Death rate (%)=(Number of dead insects/Number of tested insects)×100

[2] = test system: Haemaphysalis longicornis; experiment: Test Example 11: coated screw tube contact test, Haemaphysalis longicornis ticks; type: in vivo; conditions: 2 mg compound coated on inner wall of screw tube, non-blood-sucking nymphal ticks, after 2 days
Method: 2 mg of each of Compounds of Present Invention 7, 20, 25, 28, 48, 55, 65 and 110 was weighed in a screw tube (Maruemu No. 5; 27×55 mm), and 0.2 mL of acetone was added thereto and sealed with a cap to dissolve the compound. The screw tube was rotated and inverted to uniformity coat the drug solution onto the whole inner wall of the tube. After removing the cap, the solution was air-dried for about 2 hours, then non-blood-sucking nymphal ticks, Haemaphysalis longicornis (5 ticks/group) were released, and the tube was sealed with the cap. After 2 days, the number of dead ticks was examined, and the death rate was calculated according to the following equation: Death rate (%)=100×(Number of dead ticks/Number of tested ticks).

SMILES	Death rate (%) [1] [%]	Death rate (%) [2] [%]
CCS(=O)(=O)c1cc(NC(=O)OC)cnc1C(=O)N(C)c1ccc(SC(F)(F)F)cc1 [compound 119]	100	
CCSc1cc(Cl)cnc1C(=O)N(C)c1ccc(C(F)(F)F)cc1 [compound 131]	100	
CCSc1cccnc1C(=O)Nc1ccc(C(F)(F)F)nc1 [compound 20]		100
CCSc1cccnc1C(=O)N(C)c1ccc(I)cn1 [compound 70]	100	
CCSc1cccnc1C(=O)N(C)c1ccc(C(F)(F)C(F)(F)F)c(Cl)n1 [compound 110]		100
